# From patent US7150972B2, “Sterol carrier protein-2 from the mosquito, Aedes aegypti” (Wisconsin Alumni Research Foundation, priority 2003, dated 2006)
# Where “and” joins values, the source holds several entries; their conditions need not be identical. Equal values may be shown once.
# Experiments:
# [1] = test system: AeSCP-2 gene expression; assay: In vitro tissue culture of 4th instar gut and carcass with 20E; dot blotting and western blotting; format: cell-based, Aedes aegypti
# Experimental: To investigate whether ecdysteroids affect AeSCP-2 expression, 12 hour-old 4th instars were dissected to separate the head, gut, and carcass. Gut and carcass were cultured in the same dish with and without 20E (60 ng/ml) for 6 hours. […] As expected, at the protein level AeSCP-2 increased in 20E-treated gut tissue cultures (FIG. 7A, inset, lane 5).
# Northern and dot blotting analysis—Fifteen to twenty microgram of total RNA from indicated stages was used in Northern blotting analysis as described (Ausubel et al., 1993). After electrophoresis, RNAs in the formaldehyde-agarose gel was blotted onto positively charged Nylon membrane (Millipore, Bedford, Mass.). For dot blotting analysis, 5 ug of total RNA from three parallel samples (10 larvae per sample) of each developmental time point were blotted on to positively charged Nylon membrane as described (Millipore). The membranes were baked at 80° C. under vacuum for 1 hour and UV cross-linked (Stratagene Cloning system, La Jolla, Calif.).
# Western blotting analysis—Intact animals, dissected tissues and cultured tissues were homogenized in lysis buffer (0.25M TRIS®HCl (hydroxymethyl aminomethane hydrochloride), pH 8.0/0.2% TRITON®X-100 (octyl phenol ethoxylate) 1 mM dithioerythritol/5 mM EDTA/10 mM β-mercaptoethanol/1 mM phenylmethylsulfonyl fluoride/protease inhibitor cocktail (Sigma)), and centrifuged at 12000×g at 4° C. for 15 minutes. Supernatants containing solvable proteins were stored at −80° C. Protein concentrations were determined using a BCA kit (Pierce, Rockford, Ill.). […]
# In vitro tissue culture—Staged 4th instars were dissected in insect saline (Riddiford et al., 1979) to obtain gut and carcass for in vitro tissue culture study. […] Pure 20-hydroxyecdysone (Sigma) was dissolved in 95% ethanol, and the concentration was determined by UV spectrum absorption analysis at 243 nm wavelength (20E mg/ml=(OD 243×480)/ε and the ε=12,670). […] Total RNA was extracted from cultured tissues and analyzed by Dot blotting. […] Soluble proteins were extracted from cultured tissues and analyzed by western blotting.
# [2] = molecular target: recombinant AeSCP-2 (Aedes aegypti, UniProt Q86PR3); assay: Radiolabeled cholesterol binding assay (Lipidex-1000), Scatchard plot; details: [3H]cholesterol, rAeSCP-2 8 pM per assay, 4° C. overnight, N=6
# Source text: Whether AeSCP-2 binds cholesterol with high affinity was examined using radiolabeled cholesterol and recombinant AeSCP-2 (rAeSCP-2). Lipidex-1000 has been used for studying lipid/sterol binding proteins over decades and is proven to be a reliable assay (Glatz and Veerkamp, 1983; Colles et al., 1995). The recombinant protein was purified as GST-tagged fusion protein (FIG. 5, lanes 2 and 5) on the GST affinity column and the GST-tag was removed using Thrombin (FIG. 5, lane 4). After 16-hour Thrombin digest, there was still considerable amount of uncut fusion proteins (FIG. 5, lane 5) that may be resulted from insufficient concentration of Thrombin in the column (400 units/10 ml column). Further digest with increased level of Thrombin did completely remove the GST tag (data not shown). To optimize the condition for binding assay, varied concentrations of rAeSCP-2 was tested with 0.07 to 0.1 pM of radiolabeled cholesterol per assay. […]
# Radiolabeled cholesterol binding assay—The binding of radiolabeled cholesterol to AeSCP-2 was measured based on the Lipidex-1000 assay (Glatz and Veerkamp, 1983) optimized for AeSCP-2. […]
# Standard cholesterol solution was made from pure cholesterol (Sigma) in 95% ethanol at concentrations 0.04 nM to 20 uM. […] The slope=−Ka and Kd was calculated as […].
# [3] = molecular target: SCP-2; details: vertebrate SCP-2, Gallegos et al., 2001; read-out: Kd values of SCP-2 cholesterol-binding; cited from earlier work
Structure (SMILES),"increase of AeSCP-2 mRNA level in cultured carcass ([1]; 20E 60 ng/ml, 6 hours, carcass of 12 hour-old 4th instars)","increase of AeSCP-2 mRNA level in cultured gut ([1]; 20E 60 ng/ml, 6 hours, gut of 12 hour-old 4th instars)","AeSCP-2 protein level in gut tissue cultures ([1]; 20E-treated gut, western blot, FIG. 7 inset lane 5)",Kd [2],Kd [3]
"CC(C)(O)CC[C@@H](O)[C@](C)(O)[C@H]1CC[C@@]2(O)C3=CC(=O)[C@@H]4C[C@@H](O)[C@@H](O)C[C@]4(C)[C@H]3CC[C@]12C [20E, 20-hydroxyecdysone]",not in the carcass,2 fold,increased,,
CC(C)CCC[C@@H](C)[C@H]1CC[C@H]2[C@@H]3CC=C4C[C@@H](O)CC[C@]4(C)[C@H]3CC[C@]12C [cholesterol],,,,5.5 nM and 5.6 nM,4 to 2600 nM
